Data reported in patent publication US20140179607A9 (IRONWOOD PHARMACEUTICALS, INC, priority 2009, published 2014).
One block for each compound: values may come before it. Positions of bridges follow the written chain, without caps; N, C: chain ends. Non-standard residues stand in square brackets, D forms with d. Residues, ends and D or L forms follow the SMILES beside them. pS = N[C@@H](COP(=O)(O)O)C(=O)O

Tests used:
[1] = oral administration at therapeutic dose levels; cited from earlier work
[2] = mouse jejunum loop fluid (loops injected with 200 μL PBS, fluid recovered after 30 minutes); conditions: 37° C., up to 120 minutes
[3] = test system: Calf intestinal alkaline phosphatase (CIP); assay: Calf intestinal alkaline phosphatase (CIP) in CIP buffer (NaCl, Tris-HCl pH 8, MgCl2); conditions: 37° C., up to 90 minutes
[4] = test system: human prostate acid phosphatase (HuPrAP); assay: human prostate acid phosphatase (HuPrAP) in sodium acetate pH 5, MgCl2; conditions: 37° C., up to 90 minutes
[5] = In vitro metabolism in mouse jejunum loop fluid; format: in vitro ADME; conditions: for metabolism in mouse jejunum fluid (words) / remaining at 2 h, 100 μg/mL: 37° C.; for metabolism in mouse jejunum fluid (words): up to 120 minutes; for remaining at 2 h, 100 μg/mL: mouse jejunum loop fluid, pH 8, mouse jejunal loop fluid, after 120 minutes, read-out: percent remaining
Protocol: The purpose of this study was to determine the stability of phosphorylated peptides in mouse jejunal loop fluid. […] The isotopically labeled peptide 2 was synthesized with ^13C, ^15N-labeled alanine and leucine (i.e., with a sequence CCpS[^13C6, ^15N]LCCNP[^13C6, ^15N]ACTGC).
Each peptide was synthesized by American Peptide Company, Inc., and was stored desiccated at −20° C. A 1 mg/mL solution for each of the non-labeled peptides was prepared in 1 M tris (hydroxymethyl) aminomethane hydrochloride (Tris-HCl), pH 8 just prior to conducting the mouse intestinal loop fluid assay. A 500 ng/mL solution of ^13C, ^15N-labeled peptide 2 was prepared in 0.1% formic acid in water and was utilized to dilute the jejunum samples for post-assay LC-MS/MS analysis.
To collect the fluid, mice were fasted overnight with full access to water. They were then anesthetized with isofluorane for surgery and subjected to laparotomy in which the small intestine was exteriorized. Jejunum loops of 3 to 4 cm in length were made with sutures starting at 7 cm from the pyloric sphincter of the stomach. Once the loops were formed, they were injected with 200 μL of phosphate buffered saline (PBS) buffer (10 mM, pH 7.4). The abdominal wall and skin of the animals were then sutured, and the animals were allowed to recover for 30 minutes. Following recovery, the animals were sacrificed, the loops were then excised and the fluid inside was recovered and stored at −80° C. until use.
For each peptide, 25 μL of the 1 mg/mL peptide stock solution was added to 25 μL of 1 M Tris-HCl and 25 μL of 10× calf intestinal phosphatase (CIP) buffer containing 500 mM Tris-HCl, 1 M sodium chloride (NaCl), 0.1 mM magnesium chloride (MgCl2), pH 8. The reactions were initiated by adding 175 μL of the mouse jejunum loop fluid or 175 μL of the 1 M Tris-HCl pH8 buffer for the control reactions. The final concentration of each peptide was 100 μg/mL. The reactions were continuously mixed and maintained at 37° C. on a plate shaker. At 0, 2, 5, 10, 20, 30, 60, 90 and 120 minutes after adding the mouse intestinal loop fluid, a 25 μL aliquot was taken and added to 25 μL of 4° C. 12% trichloroacetic acid to stop the reaction. An additional 200 μL of 0.1% formic acid in water was added to these reactions for dilution purposes. These samples were then further diluted by taking 20 μL of each sample and adding it to 480 μL of 0.1% formic acid in water containing 500 ng/mL of the internal standard 13C, 15N -labeled peptide 2.
All samples were analyzed using an Applied Biosystems/MDS SCIEX API 4000 triple quadrupole mass spectrometer equipped with a high-performance liquid chromatography (HPLC) system. The mass spectrometer was operated in multiple reaction monitoring (MRM) mode, with resolution set to 1.2 Da.
The LC-MS/MS data were processed using Analyst version 1.4.2 software (Applied Biosystems/MDS SCIEX). The peak area ratio (ratio of analyte peak area to internal standard peak area) was used to calculate the percent remaining of each peptide.

[6] = target: T1, Calf intestinal alkaline phosphatase (CIP) (Bos taurus, UniProt P19111); assay: Alkaline phosphatase reaction (dephosphorylation of peptide substrates, LCMS); format: in vitro ADME
T1 construct: purchased New England BioLabs, Ipswich, Mass; M0290S
Protocol: (§1) For the alkaline phosphatase reactions, peptide stocks were prepared at 1 mg/mL in 0.1 M Tris-HCl pH 8, which were stored at −20° C. until assays were conducted. For the acid phosphatase reactions, peptide stocks were prepared at 1 mg/mL in 50 mM sodium phosphate pH 6, which was stored at −20° C. until assays were conducted.
Calf intestinal alkaline phosphatase (CIP) was obtained from New England BioLabs, Ipswich, Mass. Cat # M0290S. The CIP reaction solution was prepared by dilution with buffer (50 mM KCl, 10 mM Tris-HCl pH 8, 1 mM MgCl2, 50% glycerol) to 0.5 units/μL. The alkaline phosphatase reaction solutions were assembled in 20 μL quantities containing: • 2 μL 10× CIP buffer (1M NaCl, 500 mM Tris-HCl pH 8, 100 mM MgCl2) • 2 μL peptide stock (1 mg/mL) • 12 μL H2O • 4 μL alkaline phosphatase (0, 0.5 or 2 units)
The reaction solutions were mixed gently and incubated for 90 minutes at 37° C. These reaction solutions were stored at −20° C. until analysis. For analysis, the reaction solutions were diluted from 7.5 μL of CIP treated peptide to 50 μL with 0.1% formic acid in water to a final concentration of 10 μM.
Control reactions were assembled for enzyme activity containing 10 mM p-nitrophenylphosphate in place of peptide. After incubation, the reactions were diluted with 0.1 mL of 100 mM borate buffer pH 9 and read at the absorbance of 405 nm to monitor p-nitrophenol appearance.

[7] = test system: Potato acid phosphatase (PoAP); assay: Potato acid phosphatase (PoAP) in sodium acetate pH 5, MgCl2; conditions: 37° C., up to 90 minutes
[8] = test system: Potato acid phosphatase (PoAP); assay: Acid phosphatase reaction, potato acid phosphatase; format: in vitro ADME; conditions: Potato acid phosphatase pH 5, 90 minutes at 37° C.
Protocol: as §1
(§2) Potato acid phosphatase (PoAP) was obtained from Sigma, St. Louis, Miss. Cat #P1146 and human prostate acid phosphatase (HuPrAP) was obtained from MP Biochemicals, Solon, Ohio. Cat # 153872. The acid phosphatases were dissolved to provide a solution containing 0.5 units AP/μL using 50 mM sodium acetate pH 5, 0.2 mM MgCl2. The acid phosphatase reactions were assembled in 20 μL quantities containing: • 2 μL 10× acid phosphatase buffer (500 mM sodium acetate pH 5, 2 mM MgCl2) • 2 μL peptide stock (1 mg/mL) • 12 μL H2O • 4 μL acid phosphatase (0.5 or 2 units)
(§3) The reaction solutions were mixed gently and incubated for 90 minutes at 37° C. The reaction solutions were stored at −20° C. for later analysis. For analysis, 7.5 μL acid phosphatase reactions were diluted to 50 μL with 0.1% formic acid in water to a final concentration of 10 μM. The control reactions for enzyme activity were assembled and diluted to 10 mM p-nitrophenylphosphate in place of peptide. After incubation, the reactions were diluted with 0.1 mL of 100 mM borate buffer pH 9 and read at the absorbance of 405 nm to monitor p-nitrophenol appearance.

[9] = target: T2, human prostate acid phosphatase (HuPrAP) (Homo sapiens, UniProt P15309); assay: Acid phosphatase reaction, human prostate acid phosphatase; format: in vitro ADME; conditions: Human prostatic acid phosphatase pH 5, 90 minutes at 37° C.
T2 construct: purchased MP Biochemicals, Solon, Ohio 153872
T2 sequence (P15309 33-386): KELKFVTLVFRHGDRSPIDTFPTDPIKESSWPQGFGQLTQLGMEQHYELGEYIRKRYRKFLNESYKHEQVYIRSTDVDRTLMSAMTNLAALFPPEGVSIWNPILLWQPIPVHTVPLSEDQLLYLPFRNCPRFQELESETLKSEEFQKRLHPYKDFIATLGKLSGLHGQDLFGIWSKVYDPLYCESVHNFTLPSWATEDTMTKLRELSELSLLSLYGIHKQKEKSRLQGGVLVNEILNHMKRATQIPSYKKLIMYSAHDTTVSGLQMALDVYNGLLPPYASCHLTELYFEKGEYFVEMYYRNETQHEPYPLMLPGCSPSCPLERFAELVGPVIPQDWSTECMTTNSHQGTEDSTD
Protocol: as §1, §2, §3

[10] = Alkaline phosphatase pH 8, 90 minutes at 37° C.

T1 sequence (P19111 20-506): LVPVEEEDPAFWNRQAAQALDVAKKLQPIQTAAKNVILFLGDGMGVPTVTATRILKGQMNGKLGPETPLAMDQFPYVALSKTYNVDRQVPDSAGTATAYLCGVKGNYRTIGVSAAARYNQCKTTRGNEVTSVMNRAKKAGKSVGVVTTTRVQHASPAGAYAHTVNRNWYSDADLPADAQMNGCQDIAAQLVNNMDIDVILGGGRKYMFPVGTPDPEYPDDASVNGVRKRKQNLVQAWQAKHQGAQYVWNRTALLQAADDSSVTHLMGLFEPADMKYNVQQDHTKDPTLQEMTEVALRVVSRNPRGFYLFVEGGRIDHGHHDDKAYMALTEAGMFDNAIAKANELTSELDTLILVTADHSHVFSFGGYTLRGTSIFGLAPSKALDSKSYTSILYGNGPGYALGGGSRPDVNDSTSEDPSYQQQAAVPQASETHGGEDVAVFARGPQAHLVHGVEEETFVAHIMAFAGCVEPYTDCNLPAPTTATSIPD

Compound: C[C@@H]1NC(=O)[C@@H]2CCCN2C(=O)[C@H](CC(N)=O)NC(=O)[C@@H]2CSSC[C@H](N)C(=O)N[C@H]3CSSC[C@H](NC1=O)C(=O)N[C@@H]([C@@H](C)O)C(=O)NCC(=O)N[C@H](C(=O)N[C@@H](Cc1ccc(O)cc1)C(=O)O)CSSC[C@H](NC(=O)[C@H](Cc1ccc(O)cc1)NC(=O)[C@H](CCC(=O)O)NC3=O)C(=O)N2 [linaclotide] (H-CCEYCCNPACTGCY-OH; disulfide 1-6, 2-10, 5-13)
- levels seen systemically after oral administration [1]: no detectable levels

- fragment found [2]: dephospho-peptide 2
- fragment found [3]: Dephospho-Peptide 2
- fragment found [4]: Dephospho-Peptide 2
Compound: CCpSLCCNPACTGC

- not cleaved [3]: not affected by CIP treatment
Compound: CCELCCNPACTGCY

Compound: CC(C)C[C@@H]1NC(=O)[C@H](CCC(=O)O)NC(=O)[C@@H]2CSSC[C@@H]3NC(=O)[C@H](C)NC(=O)[C@@H]4CCCN4C(=O)[C@H](CC(N)=O)NC(=O)[C@H](CSSC[C@H](N)C(=O)N2)NC(=O)[C@H](CSSC[C@@H](C(=O)N[C@@H](Cc2ccc(O)cc2)C(=O)O)NC(=O)CNC(=O)[C@H]([C@@H](C)O)NC3=O)NC1=O [Peptide 3, CCELCCNPACTGCY] (H-CCELCCNPACTGCY-OH; disulfide 1-6, 2-10, 5-13 (inferred); N-terminus and C-terminus assumed)
- metabolism in mouse jejunum fluid (words) [5]: not detected after 90 minutes
- metabolism in mouse jejunum fluid (words) ([5]; listed as peptide 3): degraded faster in mouse intestinal fluid than peptide 2
- Effect of CIP treatment on peptide (LC-MS) ([6]; with and without calf intestinal alkaline phosphatase, data not shown): not affected by CIP treatment

- fragment found [7]: Dephospho-Peptide 1
- fragment found [3]: Dephospho-Peptide 1
- fragment found [4]: Dephospho-Peptide 1
Compound: CCpSLCCNPACTGCY

Compound: CC(C)C[C@@H]1NC(=O)[C@H](CO)NC(=O)[C@@H]2CSSC[C@@H]3NC(=O)[C@H](C)NC(=O)[C@@H]4CCCN4C(=O)[C@H](CC(N)=O)NC(=O)[C@H](CSSC[C@H](N)C(=O)N2)NC(=O)[C@H](CSSC[C@@H](C(=O)O)NC(=O)CNC(=O)[C@H]([C@@H](C)O)NC3=O)NC1=O [Dephospho-Peptide 2, CCSLCCNPACTGC] (H-CCSLCCNPACTGC-OH; disulfide 1-6, 2-10, 5-13 (inferred); N-terminus and C-terminus assumed)
- metabolism in mouse jejunum fluid (words) [5]: degraded faster in mouse intestinal fluid than peptide 2
- remaining at 2 h, 100 μg/mL [5]: 5.6%

Compound: O=[N+]([O-])c1ccc(OP(=O)(O)O)cc1 [p-nitrophenylphosphate, reference compound]
- Dephospho (%) [6, 10]: 100%
- Remaining (%) [6, 10]: 0%
- Dephospho (%) [8]: 100%
- Remaining (%) [8]: 0%
- Dephospho (%) [9]: 100%
- Remaining (%) [9]: 0%

Compound: CC(C)C[C@@H]1NC(=O)[C@H](COP(=O)(O)O)NC(=O)[C@@H]2CSSC[C@@H]3NC(=O)[C@H](C)NC(=O)[C@@H]4CCCN4C(=O)[C@H](CC(N)=O)NC(=O)[C@H](CSSC[C@H](N)C(=O)N2)NC(=O)[C@H](CSSC[C@@H](C(=O)O)NC(=O)CNC(=O)[C@H]([C@@H](C)O)NC3=O)NC1=O [Peptide 2, CCpSLCCNPACTGC] (H-CC[pS]LCCNPACTGC-OH; disulfide 1-6, 2-10, 5-13 (inferred); N-terminus and C-terminus assumed)
- formation of metabolite dephospho-peptide 2 ([5]; mouse jejunum loop fluid at 37° C.): Formation of dephospho-peptide 2 was observed
- remaining at 2 h, 100 μg/mL [5]: 5.3%
- Dephospho (%) [6, 10]: 100%
- remaining at 1.5 h, 0.1 mg/mL ([6]; calf, calf intestinal alkaline phosphatase (CIP), Alkaline phosphatase pH 8, 90 minutes at 37° C.): 0%
- Dephospho (%) [9]: 4.1%
- remaining at 1.5 h, 0.1 mg/mL ([9]; human prostate acid phosphatase (HuPrAP)): 95.9%
